Bridge positions count the residues as written; N and C are the ends. Side chains are listed from the residue outwards. Peptide text beside a SMILES is read from it. * marks the point of attachment. Butanoyl(4-(4-I-phenyl)) = O=C(CCCc1ccc(I)cc1)*; PEG2 = NCCOCCOCCC(=O)O
Assays:
[1] = molecular target: carboxypeptidase Y (Saccharomyces cerevisiae, UniProt P00729); assay: Proteolysis test, carboxypeptidase Y treatment for 4 h, HPLC; format: in vitro ADME
[2] = Hepatocyte stability, cryopreserved mouse hepatocytes; format: in vitro ADME
[3] = Plasma protein binding, rapid equilibrium dialysis, human plasma; format: in vitro ADME; conditions: for fraction unbound at 4 h, 2 μM: human, plasma, pH 7.4
[4] = molecular target: CHRM3 (Homo sapiens, UniProt P20309); assay: Safetyscan47 GPCR Calcium Flux, Antagonist; format: cell-based; conditions: for Emax: read-out: Max Response
[5] = molecular target: ADRB1 (Homo sapiens, UniProt P08588); assay: Safetyscan47 GPCR cAMP, Agonist; format: cell-based; conditions: for Emax: read-out: Max Response
[6] = molecular target: T1, CHRM2 (Homo sapiens, UniProt P08172); assay: Safetyscan47 GPCR cAMP, Agonist; format: cell-based; conditions: for Emax: read-out: Max Response
T1 sequence (P08172 1-466): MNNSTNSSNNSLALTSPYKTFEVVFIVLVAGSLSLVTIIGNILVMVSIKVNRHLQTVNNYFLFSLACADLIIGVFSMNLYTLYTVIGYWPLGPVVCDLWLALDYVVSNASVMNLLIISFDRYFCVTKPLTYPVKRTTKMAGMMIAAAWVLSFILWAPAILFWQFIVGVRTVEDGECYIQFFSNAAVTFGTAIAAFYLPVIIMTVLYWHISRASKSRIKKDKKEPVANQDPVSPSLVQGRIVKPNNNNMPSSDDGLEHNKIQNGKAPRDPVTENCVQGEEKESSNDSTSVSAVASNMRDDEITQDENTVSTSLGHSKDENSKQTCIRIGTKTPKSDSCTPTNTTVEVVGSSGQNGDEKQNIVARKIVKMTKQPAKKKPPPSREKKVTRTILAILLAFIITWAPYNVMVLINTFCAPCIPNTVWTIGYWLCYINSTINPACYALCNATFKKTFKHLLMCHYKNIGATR

[7] = molecular target: CNR1 (Homo sapiens, UniProt P21554); assay: Safetyscan47 GPCR cAMP, Agonist; format: cell-based; conditions: for Emax: read-out: Max Response
[8] = molecular target: DRD1 (Homo sapiens, UniProt P21728); assay: Safetyscan47 GPCR cAMP, Agonist; format: cell-based; conditions: for Emax: read-out: Max Response
[9] = molecular target: HTR1B (Homo sapiens, UniProt P28222); assay: Safetyscan47 GPCR cAMP, Agonist; format: cell-based; conditions: for Emax: read-out: Max Response
[10] = molecular target: OPRK1 (Homo sapiens, UniProt P41145); assay: Safetyscan47 GPCR cAMP, Agonist; format: cell-based; conditions: for Emax: read-out: Max Response
[11] = molecular target: T2, OPRM1 (Homo sapiens, UniProt P35372); assay: Safetyscan47 GPCR cAMP, Agonist; format: cell-based; conditions: for Emax: OPRM1, read-out: Max Response
[12] = molecular target: ADRB2 (Homo sapiens, UniProt P07550); assay: Safetyscan47 GPCR cAMP, Antagonist; format: cell-based; conditions: for Emax: read-out: Max Response
[13] = molecular target: T2, OPRM1; assay: Safetyscan47 GPCR cAMP, Antagonist; format: cell-based; conditions: for Emax: OPRM1, read-out: Max Response
[14] = molecular target: T3, HTR3A (Homo sapiens, UniProt P46098); assay: Safetyscan47 Ion Channel, Blocker; format: cell-based; conditions: for Emax: read-out: Max Response
T3 sequence (P46098 24-478): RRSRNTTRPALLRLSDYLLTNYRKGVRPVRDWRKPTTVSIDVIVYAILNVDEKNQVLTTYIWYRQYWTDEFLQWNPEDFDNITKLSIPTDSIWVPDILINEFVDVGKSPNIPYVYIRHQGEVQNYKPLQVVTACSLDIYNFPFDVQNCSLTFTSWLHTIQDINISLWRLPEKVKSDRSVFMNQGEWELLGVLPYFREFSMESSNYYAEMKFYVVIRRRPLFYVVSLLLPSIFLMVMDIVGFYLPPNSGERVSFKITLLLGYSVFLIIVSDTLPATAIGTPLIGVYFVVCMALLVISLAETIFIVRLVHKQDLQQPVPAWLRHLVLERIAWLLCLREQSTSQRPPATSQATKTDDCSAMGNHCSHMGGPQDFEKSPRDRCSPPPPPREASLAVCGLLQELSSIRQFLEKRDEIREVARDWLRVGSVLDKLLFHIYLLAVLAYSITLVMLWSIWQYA

[15] = molecular target: COX1 (Homo sapiens, UniProt P23219); assay: Safetyscan47 Non-Kinase Enzymes Enzymatic, Inhibitor; format: biochemical; conditions: for Emax: read-out: Max Response
[16] = molecular target: T4, MAOA (Homo sapiens, UniProt P21397); assay: as above; format: biochemical; conditions: for Emax: read-out: Max Response
T4 sequence (P21397 1-527): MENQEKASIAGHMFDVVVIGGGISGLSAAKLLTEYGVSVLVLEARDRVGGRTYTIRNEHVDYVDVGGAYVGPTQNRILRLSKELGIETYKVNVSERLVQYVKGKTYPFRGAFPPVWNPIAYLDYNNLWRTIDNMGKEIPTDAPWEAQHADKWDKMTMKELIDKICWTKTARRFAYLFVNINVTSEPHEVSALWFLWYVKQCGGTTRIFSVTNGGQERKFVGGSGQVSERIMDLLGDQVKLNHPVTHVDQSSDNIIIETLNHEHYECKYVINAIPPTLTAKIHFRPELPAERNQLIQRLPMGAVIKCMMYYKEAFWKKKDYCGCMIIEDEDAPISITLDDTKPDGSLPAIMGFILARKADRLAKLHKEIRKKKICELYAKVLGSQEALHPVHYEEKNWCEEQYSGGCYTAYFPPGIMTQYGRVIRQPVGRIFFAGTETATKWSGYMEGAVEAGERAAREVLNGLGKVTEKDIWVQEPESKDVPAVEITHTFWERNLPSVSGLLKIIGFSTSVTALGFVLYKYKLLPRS

[17] = molecular target: SERT (Homo sapiens, UniProt P31645); assay: Safetyscan47 Transporter, Blocker; format: cell-based; conditions: for Emax: read-out: Max Response
SERT, sequence (P31645 whole entry): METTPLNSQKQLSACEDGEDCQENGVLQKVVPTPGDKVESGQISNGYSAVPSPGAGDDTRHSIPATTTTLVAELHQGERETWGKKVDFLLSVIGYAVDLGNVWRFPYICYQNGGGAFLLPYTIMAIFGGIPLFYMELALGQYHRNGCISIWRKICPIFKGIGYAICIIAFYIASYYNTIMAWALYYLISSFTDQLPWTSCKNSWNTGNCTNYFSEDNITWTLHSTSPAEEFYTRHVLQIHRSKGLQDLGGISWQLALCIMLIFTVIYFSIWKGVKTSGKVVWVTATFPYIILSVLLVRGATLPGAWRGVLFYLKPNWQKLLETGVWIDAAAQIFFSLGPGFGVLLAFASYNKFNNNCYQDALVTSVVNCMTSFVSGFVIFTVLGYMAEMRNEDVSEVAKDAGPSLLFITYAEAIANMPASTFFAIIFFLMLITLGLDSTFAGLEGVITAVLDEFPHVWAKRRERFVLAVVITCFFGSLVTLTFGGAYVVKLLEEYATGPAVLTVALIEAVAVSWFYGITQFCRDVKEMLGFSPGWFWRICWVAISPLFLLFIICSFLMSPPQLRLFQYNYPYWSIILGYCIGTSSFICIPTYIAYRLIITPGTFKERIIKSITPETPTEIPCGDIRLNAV

COX1, sequence (P23219 24-599): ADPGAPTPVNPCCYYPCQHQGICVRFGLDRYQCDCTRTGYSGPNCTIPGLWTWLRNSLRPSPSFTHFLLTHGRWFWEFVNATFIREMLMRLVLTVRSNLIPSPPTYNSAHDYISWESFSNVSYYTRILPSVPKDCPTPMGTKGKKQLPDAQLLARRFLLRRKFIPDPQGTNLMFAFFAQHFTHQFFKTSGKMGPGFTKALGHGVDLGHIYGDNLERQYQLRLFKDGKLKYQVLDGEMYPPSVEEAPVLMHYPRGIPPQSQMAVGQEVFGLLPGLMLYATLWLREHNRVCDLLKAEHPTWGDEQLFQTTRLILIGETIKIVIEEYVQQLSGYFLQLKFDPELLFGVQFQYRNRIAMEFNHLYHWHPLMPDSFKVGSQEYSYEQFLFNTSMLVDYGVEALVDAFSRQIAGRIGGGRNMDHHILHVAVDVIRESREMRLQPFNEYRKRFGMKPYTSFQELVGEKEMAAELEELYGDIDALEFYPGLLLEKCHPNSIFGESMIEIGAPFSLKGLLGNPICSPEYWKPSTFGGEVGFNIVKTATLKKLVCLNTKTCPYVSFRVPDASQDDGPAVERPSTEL
DRD1, sequence (P21728 whole entry): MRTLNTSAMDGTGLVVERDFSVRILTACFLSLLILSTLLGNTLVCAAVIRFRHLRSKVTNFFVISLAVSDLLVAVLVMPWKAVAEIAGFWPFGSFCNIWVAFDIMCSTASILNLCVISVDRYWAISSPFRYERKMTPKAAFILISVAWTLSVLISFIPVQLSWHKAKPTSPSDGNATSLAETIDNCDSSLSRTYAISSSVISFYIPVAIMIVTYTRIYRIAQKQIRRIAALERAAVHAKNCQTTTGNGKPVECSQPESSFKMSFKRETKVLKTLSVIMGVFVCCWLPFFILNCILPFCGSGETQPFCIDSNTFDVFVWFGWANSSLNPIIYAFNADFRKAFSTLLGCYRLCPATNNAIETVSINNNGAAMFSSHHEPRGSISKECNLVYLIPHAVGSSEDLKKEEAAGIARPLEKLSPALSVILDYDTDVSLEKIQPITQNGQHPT
T2 sequence (P35372 whole entry): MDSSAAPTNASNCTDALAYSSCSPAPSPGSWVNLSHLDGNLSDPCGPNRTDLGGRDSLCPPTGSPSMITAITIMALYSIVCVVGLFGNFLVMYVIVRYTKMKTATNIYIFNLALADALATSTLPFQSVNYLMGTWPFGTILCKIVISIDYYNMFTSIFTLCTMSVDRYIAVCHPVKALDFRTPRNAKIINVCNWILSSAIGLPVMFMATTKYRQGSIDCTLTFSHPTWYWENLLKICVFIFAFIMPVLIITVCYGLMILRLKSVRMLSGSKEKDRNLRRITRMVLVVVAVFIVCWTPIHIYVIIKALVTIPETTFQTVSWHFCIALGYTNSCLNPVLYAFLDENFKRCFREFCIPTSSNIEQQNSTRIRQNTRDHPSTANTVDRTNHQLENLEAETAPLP
CNR1, sequence (P21554 whole entry): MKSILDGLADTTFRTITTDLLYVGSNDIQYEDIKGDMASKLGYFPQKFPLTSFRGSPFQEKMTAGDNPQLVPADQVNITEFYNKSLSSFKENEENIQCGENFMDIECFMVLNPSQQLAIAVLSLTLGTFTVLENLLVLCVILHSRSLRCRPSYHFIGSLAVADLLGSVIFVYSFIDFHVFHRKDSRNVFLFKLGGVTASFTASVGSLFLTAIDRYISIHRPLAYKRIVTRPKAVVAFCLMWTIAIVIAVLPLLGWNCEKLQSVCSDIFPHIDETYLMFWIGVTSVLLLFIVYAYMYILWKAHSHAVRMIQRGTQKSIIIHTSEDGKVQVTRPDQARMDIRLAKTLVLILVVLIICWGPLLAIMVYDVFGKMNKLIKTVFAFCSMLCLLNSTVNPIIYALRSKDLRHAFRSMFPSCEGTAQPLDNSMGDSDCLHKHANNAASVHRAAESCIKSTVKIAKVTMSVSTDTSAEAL
ADRB1, sequence (P08588 whole entry): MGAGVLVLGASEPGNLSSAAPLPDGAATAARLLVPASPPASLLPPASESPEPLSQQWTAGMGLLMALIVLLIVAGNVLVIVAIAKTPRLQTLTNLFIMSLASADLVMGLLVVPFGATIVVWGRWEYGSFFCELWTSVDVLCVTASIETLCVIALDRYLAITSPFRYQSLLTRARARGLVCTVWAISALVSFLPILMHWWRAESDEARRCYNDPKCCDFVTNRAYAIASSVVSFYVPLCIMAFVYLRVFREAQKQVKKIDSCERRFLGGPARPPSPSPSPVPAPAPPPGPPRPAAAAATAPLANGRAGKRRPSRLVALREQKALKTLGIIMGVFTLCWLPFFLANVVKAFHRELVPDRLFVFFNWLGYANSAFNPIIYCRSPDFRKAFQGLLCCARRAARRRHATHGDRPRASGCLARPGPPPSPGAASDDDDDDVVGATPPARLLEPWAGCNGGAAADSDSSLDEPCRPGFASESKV
ADRB2, sequence (P07550 whole entry): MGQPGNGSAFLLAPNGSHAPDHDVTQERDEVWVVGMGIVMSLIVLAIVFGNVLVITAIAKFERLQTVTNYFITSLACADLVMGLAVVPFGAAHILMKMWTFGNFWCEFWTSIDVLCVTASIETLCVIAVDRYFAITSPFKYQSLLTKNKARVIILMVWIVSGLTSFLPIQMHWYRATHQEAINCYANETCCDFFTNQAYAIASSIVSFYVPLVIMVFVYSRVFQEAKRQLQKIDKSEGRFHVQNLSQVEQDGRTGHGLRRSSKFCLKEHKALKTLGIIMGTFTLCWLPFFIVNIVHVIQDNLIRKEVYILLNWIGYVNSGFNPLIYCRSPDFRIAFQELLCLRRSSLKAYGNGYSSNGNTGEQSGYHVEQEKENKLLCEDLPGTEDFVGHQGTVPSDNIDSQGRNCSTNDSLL
OPRK1, sequence (P41145 whole entry): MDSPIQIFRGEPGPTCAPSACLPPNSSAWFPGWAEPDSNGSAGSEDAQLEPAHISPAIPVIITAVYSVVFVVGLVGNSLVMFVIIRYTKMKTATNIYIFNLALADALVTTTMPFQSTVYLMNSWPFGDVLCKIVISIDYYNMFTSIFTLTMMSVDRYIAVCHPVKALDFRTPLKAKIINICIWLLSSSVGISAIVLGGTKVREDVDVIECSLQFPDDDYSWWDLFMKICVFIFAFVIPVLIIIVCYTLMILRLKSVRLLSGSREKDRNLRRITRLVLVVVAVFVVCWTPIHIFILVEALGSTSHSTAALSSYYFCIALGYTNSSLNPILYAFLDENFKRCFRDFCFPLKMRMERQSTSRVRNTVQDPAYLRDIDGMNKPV
HTR1B, sequence (P28222 whole entry): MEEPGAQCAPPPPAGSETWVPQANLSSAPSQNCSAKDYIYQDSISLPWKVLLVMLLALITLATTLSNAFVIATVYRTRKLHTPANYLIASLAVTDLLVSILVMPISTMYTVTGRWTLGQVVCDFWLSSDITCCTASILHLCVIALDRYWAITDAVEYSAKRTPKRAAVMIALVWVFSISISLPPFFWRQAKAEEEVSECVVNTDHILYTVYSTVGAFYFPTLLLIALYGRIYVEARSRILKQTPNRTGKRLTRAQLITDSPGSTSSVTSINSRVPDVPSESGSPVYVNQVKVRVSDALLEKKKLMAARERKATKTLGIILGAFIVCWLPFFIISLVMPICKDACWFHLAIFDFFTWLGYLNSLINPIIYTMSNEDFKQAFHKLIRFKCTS
CHRM3, sequence (P20309 whole entry): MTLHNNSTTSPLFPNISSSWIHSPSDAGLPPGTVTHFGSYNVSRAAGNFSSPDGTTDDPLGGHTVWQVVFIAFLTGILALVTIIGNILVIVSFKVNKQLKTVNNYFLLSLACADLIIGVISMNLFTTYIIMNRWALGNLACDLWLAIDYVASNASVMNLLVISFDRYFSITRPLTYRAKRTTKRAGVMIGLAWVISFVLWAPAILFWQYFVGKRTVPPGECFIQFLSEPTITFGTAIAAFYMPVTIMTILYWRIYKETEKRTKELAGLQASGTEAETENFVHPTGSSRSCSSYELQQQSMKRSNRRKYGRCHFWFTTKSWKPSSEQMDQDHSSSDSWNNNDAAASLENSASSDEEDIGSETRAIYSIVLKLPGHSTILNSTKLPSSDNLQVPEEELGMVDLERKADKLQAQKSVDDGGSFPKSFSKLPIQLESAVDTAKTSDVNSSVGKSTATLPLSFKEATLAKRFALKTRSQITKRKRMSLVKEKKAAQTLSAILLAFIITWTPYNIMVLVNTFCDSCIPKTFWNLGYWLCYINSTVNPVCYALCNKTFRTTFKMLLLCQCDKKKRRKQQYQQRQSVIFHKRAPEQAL

Row | SMILES | change in HPLC trace after proteolysis [1] | half-life at 2 μM [2] | remaining at 1 h, 2 μM [2] | remaining at 3 h, 2 μM [2] | fraction unbound at 4 h, 2 μM [3] | IC50 [4] | Emax [4] | EC50 [5] | Emax [5] | EC50 [6] | Emax [6] | EC50 [7] | Emax [7] | EC50 [8] | Emax [8] | EC50 [9] | Emax [9] | EC50 [10] | Emax [10] | EC50 [11] | further results
1 | CC[C@H](C)[C@H](NC(=O)[C@H](CC(C)C)NC(=O)[C@H](CC(=O)O)NC(=O)CNC(=O)[C@H](CCCNC(=N)N)NC(=O)[C@@H](NC(=O)[C@H](Cc1ccccc1)NC(=O)[C@H](Cc1ccc(O)cc1)NC(=O)[C@@H]1CCC(=O)NCC(=O)NCC(=O)N[C@@H](CCCNC(=N)N)C(=O)NCC(=O)N[C@@H](Cc2c[nH]cn2)C(=O)N[C@@H](C(C)C)C(=O)N2CCC[C@H]2C(=O)N1)C(C)C)C(=O)N[C@@H](CO)C(=O)N[C@@H](Cc1ccccc1)C(=O)N[C@@H](Cc1ccc(O)cc1)C(=O)N[C@@H](CCCCN)C(=O)O [lassotide 36] (GGRGHVPEYFVRGDLISFYK-OH; lactam N-8) | little or no change | 3.57 h | 98.7% | 56.9% | 0.126 | > 45 µM | 3.06% | > 45 µM | 0% | > 45 µM | 7.71% | > 45 µM | 1.38% | > 45 µM | 0% | > 45 µM | 2.61% | > 45 µM | 2.19% | > 45 µM | Emax [11]: 3.7%; IC50 [12]: > 45 µM; Emax [12]: 8.93%; IC50 [13]: > 45 µM; Emax [13]: 0%; IC50 [14]: > 45 µM; Emax [14]: 8.73%; IC50 [15]: > 45 µM; Emax [15]: 21%; IC50 [16]: > 45 µM; Emax [16]: 10.8%; IC50 [17]: > 45 µM; Emax [17]: 17.5%
2 | CC[C@H](C)[C@H](NC(=O)[C@H](CC(C)C)NC(=O)[C@H](CC(=O)O)NC(=O)CNC(=O)[C@H](CCCNC(=N)N)NC(=O)[C@@H](NC(=O)[C@H](Cc1ccccc1)NC(=O)[C@H](Cc1ccc(O)cc1)NC(=O)[C@@H]1CCC(=O)NCC(=O)NCC(=O)N[C@@H](CCCNC(=N)N)C(=O)NCC(=O)N[C@@H](Cc2c[nH]cn2)C(=O)N[C@@H](C(C)C)C(=O)N2CCC[C@H]2C(=O)N1)C(C)C)C(=O)N[C@@H](CO)C(=O)N[C@@H](Cc1ccccc1)C(=O)N[C@@H](Cc1ccc(O)cc1)C(=O)N[C@@H](CCCCNC(=O)CCOCCOCCNC(=O)CCCc1ccc(I)cc1)C(=O)O [lassotide 47] (GGRGHVPEYFVRGDLISFYK([PEG2-Butanoyl(4-(4-I-phenyl))])-OH; lactam N-8) | little or no change | 2.69 h | 87.8% | 46.5% | 0.006 | > 45 µM | 0.91% | > 45 µM | 0% | > 45 µM | 32.7% | > 45 µM | 29.1% | > 45 µM | 0% | > 45 µM | 22.4% | > 45 µM | 23.4% | > 45 µM | Plasma protein binding, %Recovery ([3]; human plasma, RED, 2 μM, 4 h, 37°C): 101%; Emax [11]: 18.4%; IC50 [12]: > 45 µM; Emax [12]: 32.8%; IC50 [13]: > 45 µM; Emax [13]: 0%; IC50 [14]: > 45 µM; Emax [14]: 9.38%; IC50 [15]: > 45 µM; Emax [15]: 19.4%; IC50 [16]: > 45 µM; Emax [16]: 0%; IC50 [17]: > 45 µM; Emax [17]: 22.5%

— doi:10.1101/2025.01.28.635346v1 (bioRxiv, 2025)
